From ChEMBL document CHEMBL1201862, “PubChem BioAssay data set” (2004) come the findings set out here.

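Where inhibition never reached the appropriate level, the endpoint shown equals the highest concentration tested. Otherwise, values were interpolated linearly from a five-concentration, 48-hour dose response in 96-well plates. Abbreviation: GI50, concentration required for 50% inhibition of growth.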 Activity calls are given as the source filed them. No stated cut-off is given here; in the data, active = GI50 up to about 1.1 µM and inactive = higher. A value given as a limit tells only on which side of the number the result lay.

Some test systems named below: DU-145; HCC 2998; HCT-15; HOP-92; IGROV-1; M14; MDA-MB-435; MOLT-4; Malme-3M; NCI-H460; OVCAR-3; OVCAR-4; RPMI-8226; SF-268; SF-295; SF-539; SK-MEL-2; SNB-75; SR; TK-10.
Common to all, as to assay: NCI tumour cell line growth inhibition, 48 h

Take `O=C1c2ccccc2C(=O)c2c(OCC3CO3)ccc(OCC3CO3)c21` (stereo not drawn): the GI50 with DU-145 was 3.18 µM (inactive); in the assay on HCC 2998, 16.1 µM (inactive); with HCT-15, 1.74 µM; with HOP-92, 2.67 µM (inactive); in the assay with IGROV-1, 3.54 µM (inactive); in the assay with M14, 1.3 µM (inactive). Moreover, the GI50 is 2.7 µM (inactive) in the assay on MDA-MB-435; 0.0653 µM (active) with MOLT-4; 7.74 µM (inactive) in the assay on Malme-3M; 1.99 µM (inactive) in the assay on NCI-H460; 3.4 µM (inactive) in the assay with OVCAR-3; 6.52 µM (inactive) in the assay on OVCAR-4. For the same molecule, the GI50 in the assay on RPMI-8226 is 6 µM (inactive); with SF-268, 0.346 µM (active); with SF-295 it was 2.28 µM (inactive); with SF-539 it was 4.15 µM (inactive); in the assay on SK-MEL-2 it was 14 µM (inactive); in the assay on SNB-75, 12.4 µM (inactive). The GI50 with SR was 0.113 µM (active); in the assay on TK-10 it was 18.8 µM (inactive).

In the case of `COc1c(C=O)c2c(c(OC)c1OC)-c1ccc(OC)c(=O)cc1[C@@H](NC(C)=O)CC2`, the GI50 in the assay with DU-145 was 0.415 µM (active); in the assay with HCC 2998, 0.0637 µM (active); with HCT-15, 0.849 µM; with HOP-92 it was 0.0288 µM (active); in the assay on IGROV-1 it was 0.0461 µM (active); in the assay with M14, 0.051 µM (active). For the same molecule, the GI50 in the assay on MDA-MB-435 was < 0.01 µM (active); with MOLT-4 it was < 0.01 µM (active); with Malme-3M, 0.164 µM (active); with NCI-H460 it was 0.0771 µM (active); in the assay on OVCAR-3, 0.0327 µM (active); in the assay on OVCAR-4 it was 38.9 µM (inactive). Also, the GI50 in the assay on RPMI-8226 was < 0.01 µM (active); with SF-268, 0.0444 µM (active); in the assay on SF-295 it was 0.185 µM (active); with SF-539, 0.0237 µM (active); with SK-MEL-2, 0.0313 µM (active); in the assay with SNB-75, 0.0254 µM (active). For the same molecule, the GI50 in the assay on SR is < 0.01 µM (active); with TK-10 it was 3.83 µM (inactive).

In the case of `CC1C(=O)C(C)C(c2ccccc2)N(N=O)C1c1ccccc1` (stereo not drawn), the GI50 in the assay on DU-145 is 173 µM (inactive); in the assay on HCC 2998, > 100 µM (inactive); in the assay on HCT-15 it was more than 100 µM; in the assay on HOP-92 it was 24.9 µM (inactive); in the assay on IGROV-1 it was > 72.9 µM (inactive); in the assay with M14, 283 µM (inactive). Also, the GI50 in the assay with MDA-MB-435 was 157 µM (inactive); in the assay on MOLT-4 it was > 695 µM (inactive); with Malme-3M, > 318 µM (inactive); in the assay on NCI-H460, > 592 µM (inactive); in the assay with OVCAR-3, 197 µM (inactive); in the assay on OVCAR-4, > 65.9 µM (inactive). In addition, the GI50 in the assay with RPMI-8226 is > 724 µM (inactive); with SF-268 it was 65.2 µM (inactive); in the assay on SF-295, 48.8 µM (inactive); with SF-539, 86.5 µM (inactive); in the assay on SK-MEL-2, 224 µM (inactive); with SNB-75, 34 µM (inactive). Besides, the GI50 in the assay on SR was > 439 µM (inactive); in the assay on TK-10, 207 µM (inactive).

Regarding `O=C1N[C@@H](c2c[nH]c3ccc(Br)cc23)C(=O)N[C@H]1c1c[nH]c2ccc(Br)cc12`, the GI50 in the assay on DU-145 is 13.8 µM (inactive); in the assay with HCC 2998, 3.61 µM (inactive); with HCT-15, 14.9 µM; in the assay on HOP-92, 3.71 µM (inactive); with IGROV-1 it was 10.9 µM (inactive); in the assay on M14, 9.12 µM (inactive). Further, the GI50 with MDA-MB-435 is 4.25 µM (inactive); with MOLT-4, 3.53 µM (inactive); with Malme-3M it was 14.4 µM (inactive); in the assay on NCI-H460, 5.73 µM (inactive); with OVCAR-3, 9.23 µM (inactive); in the assay on OVCAR-4, 5.73 µM (inactive). The GI50 in the assay with RPMI-8226 is 7.46 µM (inactive); in the assay on SF-268, 8.15 µM (inactive); in the assay on SF-295, 11.9 µM (inactive); with SF-539 it was 5.21 µM (inactive); in the assay with SK-MEL-2, 13.6 µM (inactive); with SNB-75 it was 1.55 µM (inactive). Moreover, the GI50 with SR is 4.72 µM (inactive); with TK-10, 4.06 µM (inactive).

`C=C1C(=O)OC2/C=C(\C)C(=O)CC3OC(C)(C)OC3(C)CC(OC(=O)/C(C)=C/C)C12` (stereo not drawn): the GI50 in the assay on DU-145 is 19.4 µM (inactive); in the assay with HCC 2998, 15.9 µM (inactive); with HCT-15 it was 4.49 µM; in the assay on HOP-92 it was 13.6 µM (inactive); in the assay on IGROV-1, 14.4 µM (inactive); with M14 it was 22.5 µM (inactive). Also, the GI50 is 19.6 µM (inactive) with MDA-MB-435; 6.61 µM (inactive) in the assay on MOLT-4; 10.9 µM (inactive) in the assay on Malme-3M; 17.1 µM (inactive) in the assay with NCI-H460; 10.8 µM (inactive) in the assay on OVCAR-3; 17.6 µM (inactive) in the assay on OVCAR-4. Also, the GI50 in the assay with RPMI-8226 is 3.66 µM (inactive); in the assay with SF-268, 12.6 µM (inactive); in the assay with SF-295, 42 µM (inactive); in the assay with SF-539 it was 17.1 µM (inactive); in the assay with SK-MEL-2, 28.1 µM (inactive); with SNB-75 it was > 42.9 µM (inactive). The values for the GI50 in the assay with SR and in the assay with TK-10 were 3.05 µM (inactive) and 13.2 µM (inactive), respectively.

For `CCc1cccc(CC)c1NC(=S)NC(=O)c1ccc(Br)cc1`, the GI50 with DU-145 was 75.7 µM (inactive); in the assay on HCC 2998 it was 33.2 µM (inactive); in the assay with HCT-15 it was 33.7 µM; in the assay on HOP-92, 18.5 µM (inactive); in the assay on IGROV-1 it was 27.9 µM (inactive); in the assay with M14, 26.8 µM (inactive). Also, the GI50 is 23 µM (inactive) in the assay with MDA-MB-435; 18.8 µM (inactive) in the assay with MOLT-4; 18.4 µM (inactive) with Malme-3M; 17.7 µM (inactive) with NCI-H460; 36.3 µM (inactive) in the assay with OVCAR-3; 7.48 µM (inactive) in the assay on OVCAR-4. In addition, the GI50 is 33.1 µM (inactive) in the assay with RPMI-8226; 45 µM (inactive) with SF-268; > 53 µM (inactive) in the assay on SF-295; 33.1 µM (inactive) in the assay with SF-539; 18.6 µM (inactive) in the assay on SK-MEL-2; 26.4 µM (inactive) in the assay on SNB-75. Also, the GI50 in the assay on SR was 20.3 µM (inactive); in the assay on TK-10, 25.3 µM (inactive).

For `Oc1ccc(-c2nn3c(CCCCCCCCc4nnc5sc(-c6ccc(O)cc6)nn45)nnc3s2)cc1`, the GI50 is > 100 µM (inactive) with DU-145; > 100 µM (inactive) in the assay with HCC 2998; more than 100 µM in the assay on HCT-15; > 100 µM (inactive) in the assay with HOP-92; > 100 µM (inactive) in the assay on M14; > 100 µM (inactive) in the assay with MDA-MB-435. The GI50 with MOLT-4 is 95.7 µM (inactive); in the assay on Malme-3M it was > 100 µM (inactive); with NCI-H460, > 100 µM (inactive); with OVCAR-3 it was > 100 µM (inactive); in the assay on OVCAR-4, > 100 µM (inactive); in the assay on RPMI-8226, > 100 µM (inactive). Moreover, the GI50 in the assay with SF-268, in the assay with SF-295, in the assay with SF-539, with SK-MEL-2, in the assay with SNB-75 and in the assay on SR was > 100 µM (inactive) throughout. For the same molecule, the GI50 with TK-10 was > 100 µM (inactive).

As to `O=C/C=C/c1ccco1`, the GI50 in the assay on DU-145 was > 100 µM (inactive); in the assay on HCC 2998, > 100 µM (inactive); in the assay on HCT-15, more than 100 µM; with HOP-92, > 100 µM (inactive); in the assay with IGROV-1 it was > 100 µM (inactive); in the assay with M14, > 100 µM (inactive). In addition, the GI50 in the assay on MDA-MB-435, in the assay on MOLT-4, in the assay on Malme-3M, in the assay on OVCAR-3, in the assay on OVCAR-4 and in the assay with RPMI-8226 was > 100 µM (inactive) throughout. The GI50 in the assay with SF-268 was > 100 µM (inactive); in the assay on SF-295 it was 61.8 µM (inactive); with SF-539, 94.8 µM (inactive); in the assay on SK-MEL-2, > 100 µM (inactive); in the assay with SNB-75, > 100 µM (inactive); with SR, 31.3 µM (inactive). Further, the GI50 with TK-10 is > 100 µM (inactive).

As for `CC(CN(C)C)C(O)(c1ccccc1)c1ccccc1` (stereo not drawn), the GI50 in the assay on DU-145 was > 100 µM (inactive); in the assay on HCC 2998 it was 27.2 µM (inactive); in the assay with HCT-15, more than 100 µM; in the assay on HOP-92 it was > 100 µM (inactive); in the assay on IGROV-1, > 100 µM (inactive); in the assay on M14 it was > 100 µM (inactive). Moreover, the GI50 in the assay with MDA-MB-435, in the assay on MOLT-4, with Malme-3M, in the assay on NCI-H460, in the assay with OVCAR-3 and in the assay on OVCAR-4 was > 100 µM (inactive) each time. Moreover, the GI50 in the assay on RPMI-8226, in the assay with SF-268, in the assay with SF-295, in the assay on SF-539, in the assay with SK-MEL-2 and in the assay on SNB-75 was > 100 µM (inactive) each time. For the same molecule, the GI50 in the assay on SR and in the assay on TK-10 was > 100 µM (inactive) throughout.

`N#CC(C#N)=C(N)/C(C#N)=C/c1ccc(O)c(O)c1`: the GI50 with DU-145 is > 100 µM (inactive); in the assay on HCC 2998, > 100 µM (inactive); in the assay on HCT-15 it was 44.5 µM; in the assay with HOP-92, 43.6 µM (inactive); in the assay on IGROV-1, > 55.1 µM (inactive); with M14, > 100 µM (inactive). Also, the GI50 in the assay on MDA-MB-435 is 87.1 µM (inactive); in the assay with MOLT-4 it was 47.9 µM (inactive); in the assay on Malme-3M, > 100 µM (inactive); with NCI-H460, 50.5 µM (inactive); in the assay on OVCAR-3, 37.5 µM (inactive); in the assay with OVCAR-4, 44.8 µM (inactive). Further, the GI50 is 71.3 µM (inactive) in the assay on RPMI-8226; > 83.2 µM (inactive) with SF-268; > 20.4 µM (inactive) with SF-295; > 100 µM (inactive) in the assay with SF-539; > 100 µM (inactive) with SK-MEL-2; 74.8 µM (inactive) in the assay on SNB-75. For the same molecule, the GI50 in the assay on SR was 29.3 µM (inactive); with TK-10, > 100 µM (inactive).
